# Source: patent US20240398736A1, “Eyedrops for Treating Scleral Thinning and Screening Method for Therapeutic Agent of Scleral Thinning” (Tsubota Laboratory, Inc., priority 2020, published 2024)
# “Also recorded” adds a separate entry of the source. Where two headings read alike, the source gives them in different places.
# How the values were obtained:
# myopia-induced mouse [1] = test: Eyedrop administration of UPR inhibitors during myopia induction in mouse: axial elongation and refraction (Test Example 2); assay type: in vivo; details: eyedrop once a day for 10 days during myopia induction; 100 μM each (STF 60 μM); -30 D lens eye
# Protocol: Specifically, a myopia-induced mouse is produced as follows.
# During the myopia induction, 60 μM STF080312 (STF), 100 μM 4μ8C (4μ8C), 100 μM GSK2656157 (GSK), 100 μM GSK2606414 (GSK2606414), 100 μM Nelfinavir Mesylate hydrate (NFV), or 100μM Ceapin-A7 (Ceapin) was eye-dropped to both eyes once a day every day in the evening for 10 days.
# It is said that increase of expression of URP gene pathway is a cause of pathologic axial elongation and scleral thinning in high myopia (Patent Literature 1). Therefore, in this Test Example 2, it was evaluated, in the sclera of a myopia-induced mouse in which scleral thinning had been caused, how the phenotype of axial elongation was affected by a known URP gene inhibitor. It is noted that GSK2656157 (GSK) and GSK2606414 were used as the PERK inhibitor, Nelfinavir Mesylate hydrate (NFV) and Ceapin-A7 were used as the ATF6 inhibitor, and STF080312 (STF) and 4μ8C were used as the IRE1 inhibitor (FIG. 4).
# In accordance with the test method described above, the axial elongation caused in using each of the various gene inhibitors in a myopia-induced mouse was evaluated (FIG. 4).
# FIGS. 5a and 5b illustrate axial elongation (a) and refraction change (b) obtained after eyedrop administration of 60 μM STF, 100 μM GSK, or 100 μM NFV once a day for 10 days during the myopia induction period of the mouse. Besides, FIGS. 5c and 5d illustrate axial elongation (a) and refraction change (b) obtained after similarly eyedrop administration of a combination of these inhibitors (STF+GSK:S+G, GSK+NFV:G+N, NFV+STF:N+S, or STF+GSK+NTF:S+G+N). Besides, FIG. 6 illustrates axial elongation (a) and refraction change (b) obtained after similarly eyedrop administration of 100 μM GSK2606414, Ceapin-A7, or 4μ8C.
# myopia-induced mouse [2] = test: Intraperitoneal injection of 4-PBA or TUDCA during myopia induction in mouse: axial elongation and refraction (Test Example 3)
# Protocol: Specifically, a myopia-induced mouse is produced as follows. It is noted that myopia induction, and measurement of an axial length and refraction were performed by methods similar to those described in Non Patent Literatures 6 and 7. First, a male C57BL6J mouse was put in a standard transparent cage under a 12/12 h light/dark cycle in a temperature controlled clean room. The animal was allowed to free access to standard feed and autoclaved tap water. A 3-week-old mouse immediately after weaning was anesthetized with a mixed anesthetic of three anesthetics, that is, Domitor (Nippon Zenyaku Kogyo Co., Ltd.), Butorphanol (Meiji Seika Pharma Co., Ltd.), and Midazolam (Sandoz K. K.), and the skull was exposed with scissors. As illustrated in FIG. 1(b), a post was provided to stand on the skull, and fixed with dental cements (Super-Bond, Sun Medical Company, Ltd.). The post was provided with a screw thread so that an adjustor described below could be fixed thereon with a nut.
# For inducing myopia, a minus lens having a power of −30 diopters (D) (Rainbow Contact, RAINBOW OPTICAL LABORATORY CO., LTD.) was worn on the right eye (myopia-induced eye), and a lens having a power of 0 D or only a frame was worn as a control on the left eye (control eye). […] The protector used here was attached to be integral with the frame portion, but the protector needs not be integral with the lens as long as the lens is not damaged by the behavior of the mouse.
# Sodium phenylbutyrate (Cayman Chemical, MI, USA) and tauroursodeoxycholic acid (Sigma Aldrich, Tokyo, Japan) were dissolved in PBS. STF080310 (Selleck Biotech, Tokyo, Japan) or 4μ8C (Selleck Biotech) of an IRE1 inhibitor, GSK2656157 (Selleck Biotech) or GSK2606414 (Selleck Biotech) of a PERK inhibitor, and Nelfinavir Mesylate hydrate (Tokyo Chemical Industry Co., Ltd.) or Ceapin-A7 (Sigma Aldrich) of an ATF6 inhibitor were dissolved in DMSO, and the resultant was diluted to 1:1000 with PBS to be used in an eyedrop test.
# (§1) A solution of sodium phenylbutyrate in PBS (4-PBA; 200 mg/kg) or tauroursodeoxycholic acid (TUDCA; 100 mg/kg) was intraperitoneally injected (i.p.) every day during the myopia induction period.
# [3] = system: PERK pathway and ATF6 pathway
# Protocol: as §1
# (§2) Quantitative real-time PCR was performed using StepOnePlus Realtime PCR system with PowerUp SYBR Green Master Mix (Applied Biosystems, CA, USA). Expression level was standardized using B-actin.
# myopia-induced mouse [4] = details: 2% 4-PBA eye-dropped every day after myopia induction
# Protocol: A solution of 2% sodium phenylbutyrate in PBS (4-PBA) was eye-dropped to both eyes of a myopia induced mouse once a day every day in the evening for 10 days after completing the myopia induction period corresponding to human adulthood. It is noted that administration schedule during the myopia induction period (LIM) and after completing the period is schematically illustrated in FIG. 11.
# It was evaluated whether or not axial elongation is inhibited by eyedrop administration of 4-PBA after the myopia induction period (6 weeks old to 8 weeks old), namely, in a period, corresponding to adulthood in a human, when a posterior segment eye disorder is caused by scleral thinning (FIG. 11) differently from the eyedrop administration in the myopia induction period (3 weeks old to 6 weeks old) in a mouse model simulating myopia progression in childhood as described in Patent Literature 1.
# [5] = system: myopia-induced juvenile mouse; details: -30 D lens wearing group
# Protocol: It was examined whether or not a difference in the dosage form of 4-PBA affects the change in the lens. In accordance with the description given above in “Experimental Method”, 4-PBA was eye-dropped or intraperitoneally administered to a myopia-induced juvenile mouse, and the thickness of the lens was measured with SD-OCT in the same manner as in the measurement of the axial length.
# scleral collagen fibers = system: scleral collagen fibers
# Protocol: After experimental intervention and eye parameter measurement, the eyeball was excised from the C57BL6J mouse. For transmission electron microscopic observation, the eyeball of the mouse was fixed in ice-cooled 2.5% glutaraldehyde in PBS for 1 hour, and then was cut along the sagittal plane. The cornea and the lens were excised, and the remaining tissue was further fixed in 2.5% glutaraldehyde/60 mM HEPES buffer (pH 7.4) overnight. The resultant specimen was washed with 60 mM HEPES buffer, and was then incubated in 1% tetroxide osmium/60 mM HEPES buffer at 4° C. for 2 hours, and the resultant was dehydrated through ethanol series, exchanged and embedded in Epon 812 (EM Japan, Tokyo, Japan). After the embedding, the resultant block was sliced into 70 nm, and stained with uranyl acetate and lead citrate. The resultant section was visualized with JEM-1400Plus (JEOL LTD., Tokyo, Japan).
# The sclera is a tissue mainly containing collagen, and it is said that collagen fiber narrowing is involved in scleral thinning (see Non Patent Literature 5).
# collagen 1A1 (COL1A1) = details: 2% 4-PBA eyedrop
# Protocol: A protein (10 μg/well) of the sclera was separated by SDS-PAGE, transferred onto a PVDF membrane (Merck Millipore, MA, USA), blocked with Blocking One (Nacalai Tesque, Tokyo), and incubated together with anti-ATF6 (BioAcademia), phosphorylation-IRE1 (Ser724, Abcam, Cambridge, UL), IRE1, phosphorylation-eIF2α, eIF2α, and β-actin (Cell Signaling Technologies Japan, Tokyo, Japan) antibodies at 4° C. overnight. The resultant membrane was incubated with an appropriate HRP-bound secondary antibody, and the resultant was visualized with EzWestLumi plus (ATTA, Tokyo, Japan). SDS-PAGE was performed in a 10% acrylamide gel with a protein size marker (Magic Mark XP Western Protein Standard, ThermoFisher Scientific). The concentration measurement and analysis was performed using Image J software.
# as §2
# 4-PBA was administered by eyedrop to a mouse myopia induction model to confirm its influence on collagen 1A1 (COL1A1) and the like corresponding to principal collagens for maintaining the shape of the eyeball. A specific test method was as follows.
# PBS (Veh) or 2% 4-PBA was eye-dropped to a myopia-induced mouse, and collagen 1A1 in the sclera (n=7) was evaluated by Western blotting method, and expression of collagen-related mRNA was evaluated by quantitative PCR.
# [6] = for 4-PBA Concentration, Choroid / 4-PBA Concentration, Plasma / 4-PBA Concentration, Retina (right) / 4-PBA Concentration, Sclera: 200 mg/kg intraperitoneally for 1 week
# Protocol: Pharmacokinetics in the eye tissue obtained by systemic administration of 4-PBA was confirmed. A specific test method was as follows.
# 4-PBA (200 mg/kg) was intraperitoneally administered for 1 week. One hour after the last administration, the eyeball was excised, and respective tissues were separated. Tissues from 16 mice (32eyeballs) were pooled to be used as 1 sample, and frozen with liquid nitrogen to be stored until measurement. Before the measurement by LC-MS/MS, a 9-fold weight of methanol/water (1:1, v/v) was added thereto for homogenization, and the resultant was centrifuged (10000×g, 4°° C., 5 minutes) to use a supernatant in analysis.
# As a standard reagent, 4-phenylbutyric acid (Tokyo Chemical Industry Co., Ltd.) was used, and LC-MS/MS (LC-20AD system: Shimadzu Corporation, API4000: SCIEX, Tokyo, Japan), and HPLC column, Atlantis dc18 (5 μm, 2.1 mm ID×150 mm, Waters) were used. As a mobile phase, formic acid/water (1:10000, v/v) and acetonitrile were used, and during the analysis, the gradient of each mobile phase was maintained at 50%. A sample injection amount was set to 10 μL, a column temperature was set to 50° C., and a flow rate was set to 0.2 mL/min.
# As mass spectrometry (MS) conditions, negative mode electrospray ionization (ESI) was employed, and ion was measured by multiple reaction monitoring (MRM).
# [7] = 4-PBA 200 mg/kg/day intraperitoneal injection, 1st week and 3rd week of myopia induction (LIM)
# [8] = TUDCA 100 mg/kg intraperitoneal injection during myopia induction
compound,measurement,setting,value
O=C(Nc1cnn(Cc2ccc(C(F)(F)F)cc2C(F)(F)F)c1)c1cc(-c2ccco2)on1 [Ceapin-A7],axial elongation of myopia-induced eye,myopia-induced mouse [1],neither axial elongation nor myopic refraction was inhibited
same,myopic refraction of myopia-induced eye,myopia-induced mouse [1],neither axial elongation nor myopic refraction was inhibited
sodium phenylbutyrate [4-PBA],axial elongation,myopia-induced mouse [2]; [7],the axial elongation is inhibited
same,myopic refraction,myopia-induced mouse [2]; [7],the myopic refraction is inhibited
same,UPR gene expression in the sclera (increase in myopia induced eyes),"[3]; 4-PBA 200 mg/kg/day administered, quantitative PCR",the increase is inhibited by 4-PBA
same,expression of genes disposed downstream of the PERK pathway and the ATF6 pathway,"[3]; eyedrop administration of 2% 4-PBA, FIG. 7",significantly inhibited
same,myopic refraction after completing the myopia induction,myopia-induced mouse [4],tended to be inhibited
same,adulthood axial elongation after completing the myopia induction,myopia-induced mouse [4]; 1st and 3rd weeks,tended to inhibit
same,lens thickening through myopia induction (LIM),[5]; 4-PBA administered by eyedrop,lens thickening was not caused
same,lens thickening through myopia induction (LIM),[5]; intraperitoneal administration of 4-PBA,did not affect lens thickening
same,narrowing of collagen fibers in the sclera,"scleral collagen fibers; 4-PBA administered every day over the myopia-induced period, TEM, FIG. 10a",the narrowing of collagen fibers in the sclera was inhibited
same,scleral collagen fiber cross-sectional area profile,"scleral collagen fibers; eyedrop administration of 2% 4-PBA, FIG. 10b",the area profile was restored to the original one
same,collagen 1A1 (COL1A1) protein in the sclera (reduction induced by myopia),collagen 1A1 (COL1A1); Western blotting,can be cancelled
same,collagen 1A1 (COL1A1) mRNA in the sclera (reduction induced by myopia),collagen 1A1 (COL1A1); quantitative PCR,can be cancelled
same,"mRNAs of Col4a3, Col8a2, Col11a2, and Col15a1 in the sclera (increase by myopia induction)",collagen 1A1 (COL1A1); quantitative PCR,the increase was cancelled
same,"4-PBA Concentration, Choroid",[6]; 15 min after administration,348 ng/g or ng/mL
same,"4-PBA Concentration, Plasma",[6]; 15 min after administration,394 ng/g or ng/mL
same,"4-PBA Concentration, Retina (right)",[6]; 15 min after administration,349 ng/g or ng/mL
same,"4-PBA Concentration, Sclera",[6]; 15 min after administration,203 ng/g or ng/mL
same,"4-PBA Concentration, Choroid",[6]; 30 min after administration,117 ng/g or ng/mL
same,"4-PBA Concentration, Plasma",[6]; 30 min after administration,186 ng/g or ng/mL
same,"4-PBA Concentration, Retina (right)",[6]; 30 min after administration,88.2 ng/g or ng/mL
same,"4-PBA Concentration, Sclera",[6]; 30 min after administration,107 ng/g or ng/mL
same,"4-PBA Concentration, Choroid",[6]; 60 min after administration,76.7 ng/g or ng/mL
same,"4-PBA Concentration, Plasma",[6]; 60 min after administration,76.2 ng/g or ng/mL
same,"4-PBA Concentration, Retina (right)",[6]; 60 min after administration,27.9 ng/g or ng/mL
same,"4-PBA Concentration, Sclera",[6]; 60 min after administration,44.9 ng/g or ng/mL
same,"detection of 4-PBA in the retina, the choroid and the sclera",[6]; intraperitoneally administered,detected
Cc1cc(=O)oc2c(C=O)c(O)ccc12 [4μ8C],axial elongation of myopia-induced eye,myopia-induced mouse [1],neither axial elongation nor myopic refraction was inhibited
same,myopic refraction of myopia-induced eye,myopia-induced mouse [1],neither axial elongation nor myopic refraction was inhibited
"C[C@H](CCC(=O)NCCS(=O)(=O)O)[C@H]1CC[C@H]2[C@@H]3[C@@H](O)C[C@@H]4C[C@H](O)CC[C@]4(C)[C@H]3CC[C@]12C [TUDCA, tauroursodeoxycholic acid]","axial elongation (pathologic, myopia-induced eye)",myopia-induced mouse [2]; [8],pathologic axial elongation alone was inhibited; also recorded: the axial elongation is inhibited
same,myopic refraction,myopia-induced mouse [2]; [8],the myopic refraction is inhibited
same,physiological axial elongation,"myopia-induced mouse [2]; mouse, in vivo",physiological axial elongation was not inhibited
Cn1cc(-c2ccc3c(c2)CCN3C(=O)Cc2cccc(C(F)(F)F)c2)c2c(N)ncnc21 [GSK2606414],axial elongation of myopia-induced eye,myopia-induced mouse [1],neither axial elongation nor myopic refraction was inhibited
same,myopic refraction of myopia-induced eye,myopia-induced mouse [1],neither axial elongation nor myopic refraction was inhibited
